We go through 15 compounds from BindingDB's records for doi:10.1021/jm9600095 (Institut De Chimie Des Substances Naturelles Cnrs, 1997).

The assay is described as follows: Reverse transcriptase activity was measured in the culture supernatant, concentration that reduces by 50% the HIV produced in the supernatant.

The term EC50 denotes the concentration needed to bring the measured effect to its halfway point. On to `CCOC(Cn1c(=O)c(C)cn(C2CC(N=[N+]=[N-])C(CO)O2)c1=O)OCC` (stereo not given) [1-(4-Azido-5-hydroxymethyl-tetrahydro-furan-2-yl)-3-(2,2-diethoxy-ethyl)-5-methyl-1H-pyrimidine-2,4-dione], for which the EC50 came to 1500 nM.

On to `Cc1cn(C2CC(N=[N+]=[N-])C(CO)O2)c(=O)n(CC2COC(C)(C)O2)c1=O` (stereo not given) [1-(4-Azido-5-hydroxymethyl-tetrahydro-furan-2-yl)-3-(2,2-dimethyl-[1,3]dioxolan-4-ylmethyl)-5-methyl-1H-pyrimidine-2,4-dione], for which a half-maximal response (EC50) required 13000 nM.

`Cc1cn(C2CC(N=[N+]=[N-])C(CO)O2)c(=O)n(CCO)c1=O` (stereo not given) [1-(4-Azido-5-hydroxymethyl-tetrahydro-furan-2-yl)-3-(2-hydroxy-ethyl)-5-methyl-1H-pyrimidine-2,4-dione] yielded an EC50 of 90 nM.

Regarding `COCCOCn1c(=O)c(C)cn(C2CC(N=[N+]=[N-])C(CO)O2)c1=O` (stereo not given) [1-(4-Azido-5-hydroxymethyl-tetrahydro-furan-2-yl)-3-(2-methoxy-ethoxymethyl)-5-methyl-1H-pyrimidine-2,4-dione], the EC50 was 140000 nM.

Compound `Cc1cn(C2CC(N=[N+]=[N-])C(CO)O2)c(=O)n(CCCO)c1=O` (stereo not given) [1-(4-Azido-5-hydroxymethyl-tetrahydro-furan-2-yl)-3-(3-hydroxy-propyl)-5-methyl-1H-pyrimidine-2,4-dione] displayed an EC50 of 120 nM.

Take `Cc1cn(C2CC(N=[N+]=[N-])C(CO)O2)c(=O)n(CC2CC(CO)=NO2)c1=O` (stereo not given) [1-(4-Azido-5-hydroxymethyl-tetrahydro-furan-2-yl)-3-(3-hydroxymethyl-4,5-dihydro-isoxazol-5-ylmethyl)-5-methyl-1H-pyrimidine-2,4-dione]: the response was half-maximal at 1300 nM (EC50).

As for `Cc1cn(C2CC(N=[N+]=[N-])C(CO)O2)c(=O)n(CCCCCCO)c1=O` (stereo not given) [1-(4-Azido-5-hydroxymethyl-tetrahydro-furan-2-yl)-3-(6-hydroxy-hexyl)-5-methyl-1H-pyrimidine-2,4-dione], the EC50 was 1200 nM.

For `COc1nc(=O)n(CCn2c(=O)c(C)cn(C3CC(N=[N+]=[N-])C(CO)O3)c2=O)cc1C` (stereo not given) [1-(4-Azido-5-hydroxymethyl-tetrahydro-furan-2-yl)-3-[2-(4-methoxy-5-methyl-2-oxo-2H-pyrimidin-1-yl)-ethyl]-5-methyl-1H-pyrimidine-2,4-dione], the half-maximal effective concentration (EC50) was > 29000 nM.

On to `Cc1cn(C2CC(n3c(=O)c(C)cn(C4CC(N=[N+]=[N-])C(CO)O4)c3=O)C(CO)O2)c(=O)[nH]c1=O` (stereo not given) [1-(4-Azido-5-hydroxymethyl-tetrahydro-furan-2-yl)-3-[2-hydroxymethyl-5-(5-methyl-2,4-dioxo-3,4-dihydro-2H-pyrimidin-1-yl)-tetrahydro-furan-3-yl]-5-methyl-1H-pyrimidine-2,4-dione], for which the EC50 was found to be 100 nM.

The compound `Cc1cn(C2CC(N=[N+]=[N-])C(CO)O2)c(=O)n(CCn2c(=O)c(C)cn(C3CC(N=[N+]=[N-])C(CO)O3)c2=O)c1=O` (stereo not given) [1-(4-azido-5-hydroxymethyltetrahydro-2-furanyl)-3-{2-[1-(4-azido-5-hydroxymethyltetrahydro-2-furanyl)-5-methyl-2,4-dioxo-1,2,3,4-tetrahydro-3-pyrimidinyl]ethyl}-5-methyl-1,2,3,4-tetrahydro-2,4-pyrimidinedione] showed an EC50 of 1400 nM.

In turn, `Cc1cn(C2CC(N=[N+]=[N-])C(CO)O2)c(=O)n(CCN=[N+]=[N-])c1=O` (stereo not given) [3-(2-Azido-ethyl)-1-(4-azido-5-hydroxymethyl-tetrahydro-furan-2-yl)-5-methyl-1H-pyrimidine-2,4-dione] displayed an EC50 of 1500 nM.

Compound `C=CCn1c(=O)c(C)cn(C2CC(N=[N+]=[N-])C(CO)O2)c1=O` (stereo not given) [3-Allyl-1-(4-azido-5-hydroxymethyl-tetrahydro-furan-2-yl)-5-methyl-1H-pyrimidine-2,4-dione] gave a 50% effective concentration (EC50) of 65000 nM.

With `Cc1cn(C2CC(N=[N+]=[N-])C(CO)O2)c(=O)n(N)c1=O` (stereo not given) [3-Amino-1-(4-azido-5-hydroxymethyl-tetrahydro-furan-2-yl)-5-methyl-1H-pyrimidine-2,4-dione], the concentration for a half-maximal effect (EC50) stood at 500 nM.

Consider `CCOC(=O)Cn1c(=O)c(C)cn(C2CC(N=[N+]=[N-])C(CO)O2)c1=O` (stereo not given) [[3-(4-Azido-5-hydroxymethyl-tetrahydro-furan-2-yl)-5-methyl-2,6-dioxo-3,6-dihydro-2H-pyrimidin-1-yl]-acetic acid ethyl ester], for which the EC50 is 14000 nM.

Consider `CCOP(=O)(Cn1c(=O)c(C)cn(C2CC(N=[N+]=[N-])C(CO)O2)c1=O)OCC` (stereo not given) [[3-(4-Azido-5-hydroxymethyl-tetrahydro-furan-2-yl)-5-methyl-2,6-dioxo-3,6-dihydro-2H-pyrimidin-1-ylmethyl]-phosphonic acid diethyl ester], for which the EC50 is 4700 nM.
